Data: PMC10673995, “Discovery of a novel cardiac-specific myosin modulator using artificial intelligence-based virtual screening” (Nature Communications, 2023)
Several values for one entry are separate records, joined by “and”; a condition that tells them apart may be missing. Identical values can stand only once.

Target: bovine cardiac myofibrils (Bos taurus, UniProt Q9BE39)
Experiment: mant-ATP chase single nucleotide turnover, cardiac myofibrils;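 further: bovine cardiac myofibrils at 1 mg/mL in PIPES buffer, 20 µM mant-ATP aged 1 min then chased with 20 mM ATP, fluorescence (ex 360, em 450 nm) read every second for 15 min at 25 °C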
[1] = Cardiac myofibrils, individual replicates

Chain of bovine cardiac myofibrils (Q9BE39 whole entry): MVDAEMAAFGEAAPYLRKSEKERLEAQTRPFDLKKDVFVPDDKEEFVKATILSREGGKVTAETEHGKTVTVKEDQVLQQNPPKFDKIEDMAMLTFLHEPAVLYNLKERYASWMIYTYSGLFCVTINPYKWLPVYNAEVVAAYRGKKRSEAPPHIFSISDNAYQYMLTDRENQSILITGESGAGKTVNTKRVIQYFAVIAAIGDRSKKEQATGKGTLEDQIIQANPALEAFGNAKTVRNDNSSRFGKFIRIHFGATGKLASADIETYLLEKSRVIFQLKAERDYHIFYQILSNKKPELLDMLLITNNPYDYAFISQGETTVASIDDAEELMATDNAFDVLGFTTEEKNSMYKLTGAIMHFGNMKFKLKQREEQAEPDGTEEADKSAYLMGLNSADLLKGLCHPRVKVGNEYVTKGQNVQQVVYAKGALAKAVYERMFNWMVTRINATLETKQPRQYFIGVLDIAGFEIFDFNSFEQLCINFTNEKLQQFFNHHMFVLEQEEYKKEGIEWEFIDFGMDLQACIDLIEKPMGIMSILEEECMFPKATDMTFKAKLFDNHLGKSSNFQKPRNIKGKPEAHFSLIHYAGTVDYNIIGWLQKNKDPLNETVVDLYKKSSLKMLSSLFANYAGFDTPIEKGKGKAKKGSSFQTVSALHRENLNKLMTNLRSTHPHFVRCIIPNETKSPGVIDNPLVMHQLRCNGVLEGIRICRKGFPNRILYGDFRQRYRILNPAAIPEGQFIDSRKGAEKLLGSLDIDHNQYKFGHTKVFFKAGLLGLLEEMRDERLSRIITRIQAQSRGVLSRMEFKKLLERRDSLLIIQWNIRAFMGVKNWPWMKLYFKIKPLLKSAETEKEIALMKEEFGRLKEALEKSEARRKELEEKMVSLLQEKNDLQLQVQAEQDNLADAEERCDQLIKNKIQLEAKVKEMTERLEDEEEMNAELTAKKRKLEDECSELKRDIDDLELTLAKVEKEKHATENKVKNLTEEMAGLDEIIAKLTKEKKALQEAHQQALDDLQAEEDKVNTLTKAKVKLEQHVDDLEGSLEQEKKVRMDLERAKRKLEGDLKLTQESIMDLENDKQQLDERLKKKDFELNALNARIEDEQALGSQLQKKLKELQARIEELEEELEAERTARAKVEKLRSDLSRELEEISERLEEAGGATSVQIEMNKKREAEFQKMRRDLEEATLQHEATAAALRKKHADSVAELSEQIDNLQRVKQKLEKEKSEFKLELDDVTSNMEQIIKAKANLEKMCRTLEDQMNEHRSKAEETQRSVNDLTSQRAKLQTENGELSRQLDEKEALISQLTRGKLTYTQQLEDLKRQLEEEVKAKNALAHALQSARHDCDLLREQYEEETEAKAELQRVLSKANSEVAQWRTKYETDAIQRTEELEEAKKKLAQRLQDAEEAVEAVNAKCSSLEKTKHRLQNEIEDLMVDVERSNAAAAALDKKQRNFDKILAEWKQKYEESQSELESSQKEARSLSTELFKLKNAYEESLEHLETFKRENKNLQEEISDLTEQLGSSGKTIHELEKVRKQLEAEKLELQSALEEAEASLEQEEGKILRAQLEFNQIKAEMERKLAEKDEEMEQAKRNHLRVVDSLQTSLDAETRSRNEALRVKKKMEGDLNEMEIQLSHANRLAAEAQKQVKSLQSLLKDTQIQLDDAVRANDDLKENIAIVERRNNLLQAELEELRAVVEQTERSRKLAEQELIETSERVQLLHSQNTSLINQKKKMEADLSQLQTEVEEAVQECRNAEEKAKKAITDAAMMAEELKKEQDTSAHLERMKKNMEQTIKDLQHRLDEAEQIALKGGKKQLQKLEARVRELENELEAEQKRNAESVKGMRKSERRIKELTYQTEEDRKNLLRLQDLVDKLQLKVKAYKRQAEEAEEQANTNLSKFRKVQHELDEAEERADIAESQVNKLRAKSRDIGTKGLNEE
Chain of bovine cardiac myofibrils (P85100 whole entry partner): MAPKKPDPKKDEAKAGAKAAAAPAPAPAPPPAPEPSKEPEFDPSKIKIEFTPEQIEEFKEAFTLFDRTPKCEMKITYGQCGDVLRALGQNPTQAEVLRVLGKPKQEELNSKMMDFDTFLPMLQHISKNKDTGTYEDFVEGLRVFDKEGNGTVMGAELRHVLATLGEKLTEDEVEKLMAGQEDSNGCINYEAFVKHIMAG
Chain of bovine cardiac myofibrils (Q3SZE5 whole entry partner): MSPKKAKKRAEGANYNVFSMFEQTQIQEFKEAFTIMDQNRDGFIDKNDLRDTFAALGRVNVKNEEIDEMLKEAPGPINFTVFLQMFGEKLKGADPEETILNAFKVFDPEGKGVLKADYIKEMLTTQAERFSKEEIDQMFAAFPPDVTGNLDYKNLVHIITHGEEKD
Text: We used systems of increasing complexity ranging from the isolated cardiac myosin motor domains (Fig. 3a) to synthetic thick filaments formed from purified full-length bovine cardiac myosin (Fig. 3b) and bovine cardiac myofibrils as substrates in the chase assays (Fig. 3c). In contrast to the isolated myosin motors, synthetic thick filaments contain two myosin head domains per molecule connected via their coiled-coil tail.
Synthetic thick filaments were freshly prepared by diluting full-length bovine cardiac myosin stock into assay buffer (composition in mmol L^−1: 15 PIPES pH 7, 5 MgCl2, 1 DTT) and incubation on ice for 2 h. Bovine myosin S1 and synthetic thick filament concentrations were adjusted to 0.4 μmol L^−1 with assay buffer and 40 μL aliquoted into individual wells of a black 384-well plate (Greiner). Mant-ATP (JenaBioscience) was added to each well to a final concentration of 0.4 μmol L^−1 using an automated injector unit in a ClarioStar Plate Reader (BMG LabTech) and the system was allowed to age for 1 min. The chase phase was started by adding a final concentration of 2 mmol L^−1 ATP using a second automated injector unit. Fluorescence intensity from each well was constantly measured for 15 min every 1 sec at 25 °C with the following settings: excitation at 360 nm with a 20 nm bandwidth and emission at 450 nm with a 20 nm bandwidth. For experiments with cardiac myofibrils the concentration was adjusted to 1 mg m L^−1, and the mant-ATP and ATP concentrations were increased to 20 μmol L^−1 and 20 mmol L^−1, respectively.

With CCc1cc2c(=O)n(NC(=S)NC(C)C)cnc2s1 [F10] the “effect on the rate of the fast phase” value was “no effect”, the kfast (2 μmol L^−1 Mavacamten or 20 μmol L^−1 F10, control 0.0719 ± 0.0193) was 0.0552 ± 0.0106 s⁻¹ and the kfast [1] was 0.02031 s⁻¹ and 0.02851 s⁻¹ and 0.03852 s⁻¹ and 0.09761 s⁻¹ and 0.08409 s⁻¹ and 0.06218 s⁻¹. For the same compound, the kslow [1] was 0.003333 s⁻¹ and 0.002949 s⁻¹ and 0.001064 s⁻¹ and 0.001853 s⁻¹ and 0.00204 s⁻¹ and 0.001557 s⁻¹, the slow phase [1] was 72.63% and 66.55% and 67.45% and 65.69% and 56.45% and 78.18% and the Bar graph (Figure 3c, individual replicates) was 72.63 and 66.55 and 67.45 and 65.69 and 56.45 and 78.18. For the same compound, the “Representative Traces” value (t [s] = 6) was 0.8687, the “Representative Traces” value (t [s] = 7) was 0.7649 and the “Representative Traces” value (t [s] = 8) was 0.847. For the same compound, the “Representative Traces” value (t [s] = 9) was 0.7441, the “Representative Traces” value (t [s] = 10) was 0.7291 and the “Representative Traces” value (t [s] = 11) was 0.7606. For the same compound, the “Representative Traces” value (t [s] = 12) was 0.6903, the “Representative Traces” value (t [s] = 13) was 0.6968 and the “Representative Traces” value (t [s] = 14) was 0.7384. For the same compound, the “Representative Traces” value (t [s] = 96) was 0.4594, the “Representative Traces” value (t [s] = 97) was 0.4902 and the “Representative Traces” value (t [s] = 98) was 0.4564. The “Representative Traces” value (t [s] = 99) was 0.5227, the “Representative Traces” value (t [s] = 100) was 0.5227 and the “Representative Traces” value (t [s] = 101) was 0.4329. For the same compound, the “Representative Traces” value (t [s] = 102) was 0.4816, the “Representative Traces” value (t [s] = 103) was 0.4496 and the “Representative Traces” value (t [s] = 104) was 0.4983. The “Representative Traces” value (t [s] = 105) was 0.4303, the “Representative Traces” value (t [s] = 106) was 0.4469 and the “Representative Traces” value (t [s] = 107) was 0.4441. For the same compound, the “Representative Traces” value (t [s] = 108) was 0.454, the “Representative Traces” value (t [s] = 109) was 0.4003 and the “Representative Traces” value (t [s] = 110) was 0.4314. For the same compound, the “Representative Traces” value (t [s] = 111) was 0.4793, the “Representative Traces” value (t [s] = 112) was 0.4152 and the “Representative Traces” value (t [s] = 113) was 0.4525. For the same compound, the “Representative Traces” value (t [s] = 114) was 0.4165, the “Representative Traces” value (t [s] = 115) was 0.4344 and the “Representative Traces” value (t [s] = 116) was 0.416. The “Representative Traces” value (t [s] = 117) was 0.4849, the “Representative Traces” value (t [s] = 118) was 0.4794 and the “Representative Traces” value (t [s] = 119) was 0.4668. The “Representative Traces” value (t [s] = 120) was 0.4665, the “Representative Traces” value (t [s] = 121) was 0.4689 and the “Representative Traces” value (t [s] = 122) was 0.4838. For the same compound, the “Representative Traces” value (t [s] = 123) was 0.4652, the “Representative Traces” value (t [s] = 124) was 0.4182 and the “Representative Traces” value (t [s] = 125) was 0.3966. The “Representative Traces” value (t [s] = 126) was 0.4538, the “Representative Traces” value (t [s] = 127) was 0.4517 and the “Representative Traces” value (t [s] = 128) was 0.4361. For the same compound, the “Representative Traces” value (t [s] = 129) was 0.4908, the “Representative Traces” value (t [s] = 130) was 0.4396 and the “Representative Traces” value (t [s] = 131) was 0.3944. The “Representative Traces” value (t [s] = 132) was 0.397, the “Representative Traces” value (t [s] = 133) was 0.4059 and the “Representative Traces” value (t [s] = 134) was 0.4164. For the same compound, the “Representative Traces” value (t [s] = 135) was 0.475, the “Representative Traces” value (t [s] = 136) was 0.486 and the “Representative Traces” value (t [s] = 137) was 0.4478. For the same compound, the “Representative Traces” value (t [s] = 138) was 0.507, the “Representative Traces” value (t [s] = 139) was 0.3865 and the “Representative Traces” value (t [s] = 140) was 0.4564. For the same compound, the “Representative Traces” value (t [s] = 141) was 0.4199, the “Representative Traces” value (t [s] = 142) was 0.4501 and the “Representative Traces” value (t [s] = 143) was 0.4218. For the same compound, the “Representative Traces” value (t [s] = 144) was 0.4033, the “Representative Traces” value (t [s] = 145) was 0.441 and the “Representative Traces” value (t [s] = 146) was 0.3827. For the same compound, the “Representative Traces” value (t [s] = 147) was 0.3962, the “Representative Traces” value (t [s] = 148) was 0.4486 and the “Representative Traces” value (t [s] = 149) was 0.4251. The “Representative Traces” value (t [s] = 150) was 0.3547, the “Representative Traces” value (t [s] = 151) was 0.4491 and the “Representative Traces” value (t [s] = 152) was 0.3776. The “Representative Traces” value (t [s] = 153) was 0.3808, the “Representative Traces” value (t [s] = 154) was 0.3286 and the “Representative Traces” value (t [s] = 155) was 0.4639. For the same compound, the “Representative Traces” value (t [s] = 156) was 0.435, the “Representative Traces” value (t [s] = 157) was 0.3725 and the “Representative Traces” value (t [s] = 158) was 0.3522. For the same compound, the “Representative Traces” value (t [s] = 159) was 0.4127, the “Representative Traces” value (t [s] = 160) was 0.3983 and the “Representative Traces” value (t [s] = 161) was 0.3945. For the same compound, the “Representative Traces” value (t [s] = 162) was 0.3807, the “Representative Traces” value (t [s] = 163) was 0.4372 and the “Representative Traces” value (t [s] = 164) was 0.4557. For the same compound, the “Representative Traces” value (t [s] = 165) was 0.4341, the “Representative Traces” value (t [s] = 166) was 0.3757 and the “Representative Traces” value (t [s] = 167) was 0.3677. For the same compound, the “Representative Traces” value (t [s] = 168) was 0.4335, the “Representative Traces” value (t [s] = 169) was 0.3827 and the “Representative Traces” value (t [s] = 170) was 0.3934. For the same compound, the “Representative Traces” value (t [s] = 171) was 0.3476, the “Representative Traces” value (t [s] = 172) was 0.3794 and the “Representative Traces” value (t [s] = 173) was 0.3525. For the same compound, the “Representative Traces” value (t [s] = 174) was 0.3963, the “Representative Traces” value (t [s] = 175) was 0.3642 and the “Representative Traces” value (t [s] = 176) was 0.3906. The “Representative Traces” value (t [s] = 177) was 0.3677, the “Representative Traces” value (t [s] = 178) was 0.392 and the “Representative Traces” value (t [s] = 179) was 0.4104. The “Representative Traces” value (t [s] = 180) was 0.4065, the “Representative Traces” value (t [s] = 181) was 0.4021 and the “Representative Traces” value (t [s] = 182) was 0.3788. The “Representative Traces” value (t [s] = 183) was 0.3953, the “Representative Traces” value (t [s] = 184) was 0.397 and the “Representative Traces” value (t [s] = 185) was 0.4128. For the same compound, the “Representative Traces” value (t [s] = 186) was 0.3872.
